In patent publication US6903116B2, “Methods of treating cancer using a heat shock factor activity inhibitor” (Kaneka Corp., priority 1997, dated 2005):

Tests used:
[1] = tested on: promoter region including the HSE sequence for HSP47; experiment: Reporter protein expression suppression, stable transformant A (HSE/HSP47 promoter β-galactosidase); type: cell-based, Chinese hamster; settings: heat shock 42° C. 90 min, relative to DMSO
Source text: A plasmid was produced in which a β-galactosidase gene was located downstream of a promoter region including the HSE sequence for HSP47. […] Chinese hamster ovary (CHO) cells were transfected with the plasmid to obtain stable transformant […]. These stable transformants were pre-treated with Compounds 101, 102 and 103 above and Compound C (1-acetyl-3-benzo-(1,3)dioxole-5-ylmethylene-pyrrolidin-2-one; this compound is represented by general formula (I) of the present invention wherein X is —CH2— and R^1 is acetyl) in a CO2 incubator at 37° C. for 60 min. Then, the transformants were subjected to a heat shock of 42° C. for 90 min, recovered at 37° C. for 2 hours, and incubated at a room temperature for 30 min with 4-methylumbelliferyl-β-D-galactoside as a substrate for the activity of β-galactosidase expressed in the cell. Then, the fluorescence was measured (excitation at 365 nm, emission at 450 nm). The amount of β-galactosidase expressed after a treatment with test compounds or the known HSF and HSP inhibitor quercetin as a control agent was divided by the amount of β-galactosidase expressed after a treatment with dimethylsulfoxide (DMSO) as a solvent control, thereby calculating the expression rate (%) as shown in Table 1.

SV40 early promoter = experiment: Reporter protein expression suppression, stable transformant B (SV40 early promoter β-galactosidase); type: cell-based, Chinese hamster; settings: heat shock 42° C. 90 min, relative to DMSO
[2] = tested on: HSP70 (inducible type) mRNA; experiment: Transcription suppression of HSP70 (inducible type) mRNA by Northern hybridization; type: cell-based; settings: COLO320DM cells, heat shock 42° C. 90 min; for Transcription Amount of HSP70 (induced type): 100 μM, DMSO = 1.0
Experimental: COLO320DM cells (ATCC CCL-220) were pre-treated with Compounds 101, 102 and 103 in a CO2 incubator at 37° C. for 60 min using 10% FCS, DMEM medium (Gibco BRL), after which the cell was subjected to a heat shock of 42° C. for 90 min. Immediately thereafter, the treated cells were collected, and total RNA was extracted from the cells by using the acid guanidine thiocyanate phenol chloroform (AGPC) method. The total RNA was electrophoresed, transferred to a nylon filter, and the amounts of HSP mRNA were compared among experimental groups by using the Northern hybridization method. cDNA of HSP70 (inducible type) labeled with [α-^32P] dCTP was used as a probe, and cDNA of β-actin was used as an internal control. […] Table 2 provides comparison in the amount of transcription of HSP70 (inducible type) among cells which were subjected to a heat shock after treatment with the respective compounds, with the amount of induced transcription in a cell treated with the control solvent DMSO being 1.0.

HSP40 = experiment: HSP expression induction suppression by 2-dimensional electrophoresis, HSP40; type: cell-based; design: key: ↑↑↑: Not Suppressed (Strongly Induced); ↓: Slightly Suppressed; ↓↓: Suppressed; ↓↓↓: Strongly Suppressed; settings: 100 μM; COLO320DM cells; compared with DMSO control
Experimental: (§1) COLO320DM cells were pre-treated with Compounds 101, 102 and 103 at 37° C. for 60 min, followed by application of a heat shock at 42° C. for 90 min, and recovery at 37° C. for 2 hours. Then, the media were replaced with methionine-free media, and the cells were treated at 37° C. for 1 hour with ^35S-methionine to label newly synthesized proteins.
(§2) The cell lysate was obtained, subjected to an isoelectric focusing as the first dimension and then to an expansion by SDS-PAGE as the second dimension. Then, the gel was subjected to fluorography so as to compare between the amounts of HSP synthesized with and without heat induction. Comparison between the amounts of β-actin synthesized as an internal control with and without heat induction confirmed that the other proteins were normally synthesized.

HSP47 = experiment: HSP expression induction suppression by 2-dimensional electrophoresis, HSP47; type: cell-based; design: key: ↑↑↑: Not Suppressed (Strongly Induced); ↓: Slightly Suppressed; ↓↓: Suppressed; ↓↓↓: Strongly Suppressed; settings: 100 μM; COLO320DM cells; compared with DMSO control
Experimental: as §1, §2

HSP70 = experiment: HSP expression induction suppression by 2-dimensional electrophoresis, HSP70; type: cell-based; design: key: ↑↑↑: Not Suppressed (Strongly Induced); ↓: Slightly Suppressed; ↓↓: Suppressed; ↓↓↓: Strongly Suppressed; settings: 100 μM; COLO320DM cells; compared with DMSO control
Experimental: as §1, §2

HSP90 = experiment: HSP expression induction suppression by 2-dimensional electrophoresis, HSP90; type: cell-based; design: key: ↑↑↑: Not Suppressed (Strongly Induced); ↓: Slightly Suppressed; ↓↓: Suppressed; ↓↓↓: Strongly Suppressed; settings: 100 μM; COLO320DM cells; compared with DMSO control
Experimental: as §1, §2

HSP100 = experiment: HSP expression induction suppression by 2-dimensional electrophoresis, HSP100; type: cell-based; design: key: ↑↑↑: Not Suppressed (Strongly Induced); ↓: Slightly Suppressed; ↓↓: Suppressed; ↓↓↓: Strongly Suppressed; settings: 100 μM; COLO320DM cells; compared with DMSO control
Experimental: as §1, §2

β-actin = experiment: 2-dimensional electrophoresis, β-actin internal control; type: cell-based; settings: 100 μM; COLO320DM cells
Experimental: as §1, §2

COLO320DM cells = experiment: Cell heat resistance suppression, colony formation assay; type: cell-based; settings: 100 μM; pre-heating 42° C. 90 min, then 45° C. 60 min; all colonies counted
Experimental: COLO320DM cells were pre-treated with the above-described compounds at 37° C. for 60 min, followed by pre-heating by application of a heat shock of 42° C. for 90 min. The cells were further treated at 37° C. for 60 min. Then, the media were replaced respectively with compound-free media, and the cells were further incubated at 37° C. for 60 min. Thereafter, the cells were treated at 45° C. for 60 min, and cultured for about 10 days followed by measurement of the number of surviving cells as the number of colonies using a colony formation assay. […] The number of colonies formed without the treatment at 45° C. was substantially the same among all of the drugs.
The compounds of the present invention clearly confirmed to have the inhibitory effect on the acquisition of cell heat resistance, which is greater than that obtained with the known inhibitor quercetin. The surviving fraction was calculated according to the following formula: Surviving Fraction (%)=A/B×100 • A: Cell Survival Fraction With Treatment at 45° C. for 60 min • B: Cell Survival Fraction Without Treatment at 45° C. Cell Survival Fraction=C/D • C: Number of Surviving Cells • D: Number of Cells Seeded

[3] = Antidepressant effect in forced swimming test; type: in vivo; settings: 100 mg/kg orally once, Wistar male rat; for No-Movement Period: 5-minute test; for Suppression Rate (%): versus physiological saline
Experimental: The experiment was conducted as a partial modification of the Porsolt, R. D. et al. method (Eur. J. Pharm., 47: 379, 1978). In particular, a Wistar male rat (5 weeks of age, weight: 130-150 g) was dropped into water (temperature: 25° C.) about 15 cm deep in a glass cylinder having an inner diameter of 18 cm and a height of 40 cm. The rat was taken out after 15 min, dried and put back into a home cage. […] One hundred mg/kg of each test compound, suspended in a physiological saline, was orally administered once before the 5-minute test so as to examine the antidepression effect. One hundred mg/kg of imipramine, a known antidepressant, as a control drug and 5 ml/kg of a physiological saline as a control were similarly orally administered. A shortened no-movement period was calculated as a suppression rate according to the following formula: Suppression Rate (%)=(E−F)/E×100 • E: No-Movement Period with Physiological Saline • F: No-Movement Period with Test Compound

[4] = tested on: murine carcinoma cell (SCC VII); experiment: Inhibitory effect on cancer heat resistance acquisition, tumor growth delay assay; type: in vivo, C3H/He mice
Experimental: A murine carcinoma cell (SCC VII) was implanted in the right leg of C3H/He mice (male, about 10 mice for each group), and the experiment was started when the tumor became about 1 cm in diameter. The tumor was heated by soaking the tumor site of each mouse under general anaesthesia into a constant temperature bath at 44° C. The inhibitory effect on the heat resistance acquisition by cancer cell was examined by a growth delay assay on the tumor. Two hundred mg/kg of each test compound, suspended in an olive oil, was intraperitoneally administered once 6 hours before the first heating. The first heating was performed for 10 minutes (H1), and the second heating was performed for 30 minutes (H2), with a recovery period of 8 hours at room temperature between the first heating and the second heating.

Row | Structure (SMILES) | Expression Rate (%) Transformant A ([1]; 5 μM) [%] | Expression Rate (%) Transformant A ([1]; 50 μM) [%] | Expression Rate (%) Transformant A ([1]; 100 μM) [%] | Expression Rate (%) Transformant B (SV40 early promoter; 5 μM) [%] | Expression Rate (%) Transformant B (SV40 early promoter; 50 μM) [%] | Expression Rate (%) Transformant B (SV40 early promoter; 100 μM) [%] | Transcription Amount of HSP70 (induced type) [2] | HSP Induction by Heat Shock Treatment, HPS40 (HSP40) | HSP Induction by Heat Shock Treatment, HSP47 (HSP47) | HSP Induction by Heat Shock Treatment, HSP70 (HSP70) | HSP Induction by Heat Shock Treatment, HSP90 (HSP90) | HSP Induction by Heat Shock Treatment, HSP100 (HSP100) | β-actin synthesis by Heat Shock Treatment (internal control) (β-actin) | Surviving Fraction (%) (COLO320DM cells) | Suppression of mRNA transcription of HSP70 (in words) [2] | No-Movement Period [3] [s] | Suppression Rate (%) [3] [%] | Mean days before tumor tripled ([4]; 200 mg/kg i.p. 6 hours before first heating, 44° C. 10 min (H1), 8 hr, 30 min (H2)) [days] | Mean days before tumor tripled ([4]; 200 mg/kg i.p., 44° C., 30 min heating) [days] | Mean days before tumor tripled ([4]; 200 mg/kg intraperitoneally once, no heating) [days]
1 | O=c1c(O)c(-c2ccc(O)c(O)c2)oc2cc(O)cc(O)c12 [Quercetin, quercetin, reference compound] | 99 | 25 | 6 | 96 | 82 | 58 | 0.4 | ↓↓ | ↓↓ | ↓ | ↓ | ↓ | no change | 6 | – | – | – | – | – | –
2 | O=C1NCC/C1=C\c1ccc2c(c1)OCO2 [Compound 101] | 46 | 1 | – | 90 | 61 | – | 0.03 | ↓↓↓ | ↓↓↓ | ↓↓↓ | ↓↓↓ | ↓↓↓ | no change | <1 | specifically and significantly suppressed | 145 | 29 | – | – | –
3 | O=C1NCCC/C1=C\c1ccc2c(c1)OCO2 [Compound 103] | 47 | 10 | 2 | 93 | 62 | 46 | 0.1 | ↓↓↓ | ↓↓↓ | ↓↓↓ | ↓↓↓ | ↓↓↓ | no change | <1 | specifically and significantly suppressed | 90 | 56 | – | – | –
4 | CN(C)CCCN1c2ccccc2CCc2ccccc21 [Imipramine, imipramine, reference compound] | – | – | – | – | – | – | – | – | – | – | – | – | – | – | – | 180 | 12 | – | – | –
5 | CC(=O)N1CCC(=Cc2ccc3c(c2)OCO3)C1=O [Compound C, 1-acetyl-3-benzo-(1,3)dioxole-5-ylmethylene-pyrrolidin-2-one] | 40 | 11 | – | 91 | 88 | – | – | – | – | – | – | – | – | – | – | – | – | – | – | –
6 | O=CN1CC/C(=C\c2ccc3c(c2)OCO3)C1=O [Compound 102] | 57 | 3 | 0 | 88 | 75 | 69 | 0.04 | ↓↓↓ | ↓↓↓ | ↓↓↓ | ↓↓↓ | ↓↓↓ | no change | <1 | specifically and significantly suppressed | – | – | 12.6 | 13.3 | 8.4
